Here are results for 22 compounds from patent publication US12083124B2 (Incyte Corporation, priority 2019, dated 2024).

Experiment [1] has as its target wild-type un-phosphorylated FGFR1 (Homo sapiens, UniProt P11362). As to the kind of experiment: FGFR Enzymatic Assay (FRET peptide phosphorylation), FGFR1. The conditions noted are these: pre-incubated for 4 hours.
Experimental: (§1) The inhibitor potency of the exemplified compounds was determined in an enzyme discontinuous assay that measures peptide phosphorylation using FRET measurements to detect product formation. Inhibitors were serially diluted in DMSO and a volume of 0.2 μL was transferred to the wells of a 384-well plate. […] Appropriate controls (enzyme blank and enzyme with no inhibitor) were included on the plate. […] The 10 μL/well reaction concentration of the peptide substrate was 500 nM whereas the ATP concentration was maintained near or below the ATP Km. The ATP Km values were pre-determined in a separate series of experiments. The reaction plate was incubated at 25° C. for 1 hr and the reactions were ended with the addition of 5 μL/well of quench solution (50 mM Tris, 150 mM NaCl, 0.5 mg/mL BSA, pH 7.8; 45 mM EDTA, 600 nM staurosporin, with Perkin Elmer Lance Reagents at 3.75 nM Eu-antibody PY20 and 180 nM APC-Streptavidin). The plate was allowed to equilibrate for ˜10 minutes at ambient temperature before scanning on a PheraStar plate reader (BMG Labtech) instrument.
(§2) Either GraphPad prism or XLfit was used to analyze the data. The IC50 values were derived by fitting the data to a four parameter logistic equation producing a sigmoidal dose-response curve with a variable Hill coefficient. Prism equation: Y=Bottom+(Top-Bottom)/(1+10^((Log IC50-X)*Hill slope)); XLfit equation: Y=(A+((B−A)/(1+((X/C)^D)))) where X is the logarithm of inhibitor concentration and Y is the response.
(§3) GraphPad prism3 was used to analyze the data. The IC50 values were derived by fitting the data to the equation for a sigmoidal dose-response with a variable slope. Y=Bottom+(Top-Bottom)/(1+10^((Log IC50-X)*Hill Slope)) where X is the logarithm of concentration and Y is the response.
(§4) The data in Table 1 was measured in wild-type un-phosphorylated FGFR1, FGFR2, FGFR3, and FGFR4 proteins.
Experiment [2] deals with wild-type un-phosphorylated FGFR3 (Homo sapiens, UniProt P22607). As to the kind of experiment: FGFR Enzymatic Assay (FRET peptide phosphorylation), FGFR3.
Experimental: as §1, §2, §3
Experiment [3] addresses wild-type un-phosphorylated FGFR2 (Homo sapiens, UniProt P21802). In words: FGFR Enzymatic Assay (FRET peptide phosphorylation), FGFR2.
For experiment [4], the target named is wild-type un-phosphorylated FGFR4 (Homo sapiens, UniProt P22455). As to the kind of experiment: FGFR Enzymatic Assay (FRET peptide phosphorylation), FGFR4.
Experimental: as §1, §2, §3, §4
The mark [5] stands for this setting: FGFR1, wild-type un-phosphorylated FGFR1.
Setting [6] is: read-out: FGFR1, wild-type un-phosphorylated FGFR1.
The mark [7] stands for this setting: read-out: FGFR2, wild-type un-phosphorylated FGFR2, pre-incubated for 4 hours.

Read-outs that look alike come from different tables or passages of the source.

Sequence of wild-type un-phosphorylated FGFR2 (P21802 22-821): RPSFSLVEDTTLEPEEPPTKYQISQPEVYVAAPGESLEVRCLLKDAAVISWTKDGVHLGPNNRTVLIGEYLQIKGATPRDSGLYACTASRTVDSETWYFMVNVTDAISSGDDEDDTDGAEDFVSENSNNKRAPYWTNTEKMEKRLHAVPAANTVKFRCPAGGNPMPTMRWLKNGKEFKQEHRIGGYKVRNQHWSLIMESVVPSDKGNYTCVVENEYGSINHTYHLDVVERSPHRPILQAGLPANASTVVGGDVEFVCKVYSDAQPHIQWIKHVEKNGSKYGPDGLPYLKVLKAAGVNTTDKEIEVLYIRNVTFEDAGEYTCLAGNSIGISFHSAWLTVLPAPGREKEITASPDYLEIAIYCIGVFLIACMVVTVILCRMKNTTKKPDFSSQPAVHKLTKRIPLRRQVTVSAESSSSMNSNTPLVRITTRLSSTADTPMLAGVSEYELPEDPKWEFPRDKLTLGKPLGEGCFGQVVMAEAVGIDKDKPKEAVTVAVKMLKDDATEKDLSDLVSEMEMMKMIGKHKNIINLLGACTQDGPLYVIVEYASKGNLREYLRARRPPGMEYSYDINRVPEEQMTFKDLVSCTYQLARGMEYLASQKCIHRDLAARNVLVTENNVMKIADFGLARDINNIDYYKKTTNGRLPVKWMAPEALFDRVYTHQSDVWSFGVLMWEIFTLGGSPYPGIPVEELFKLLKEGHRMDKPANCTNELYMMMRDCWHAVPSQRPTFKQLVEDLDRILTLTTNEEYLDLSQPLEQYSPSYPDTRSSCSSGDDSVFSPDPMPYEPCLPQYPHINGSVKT
Sequence of wild-type un-phosphorylated FGFR4 (P22455 22-802): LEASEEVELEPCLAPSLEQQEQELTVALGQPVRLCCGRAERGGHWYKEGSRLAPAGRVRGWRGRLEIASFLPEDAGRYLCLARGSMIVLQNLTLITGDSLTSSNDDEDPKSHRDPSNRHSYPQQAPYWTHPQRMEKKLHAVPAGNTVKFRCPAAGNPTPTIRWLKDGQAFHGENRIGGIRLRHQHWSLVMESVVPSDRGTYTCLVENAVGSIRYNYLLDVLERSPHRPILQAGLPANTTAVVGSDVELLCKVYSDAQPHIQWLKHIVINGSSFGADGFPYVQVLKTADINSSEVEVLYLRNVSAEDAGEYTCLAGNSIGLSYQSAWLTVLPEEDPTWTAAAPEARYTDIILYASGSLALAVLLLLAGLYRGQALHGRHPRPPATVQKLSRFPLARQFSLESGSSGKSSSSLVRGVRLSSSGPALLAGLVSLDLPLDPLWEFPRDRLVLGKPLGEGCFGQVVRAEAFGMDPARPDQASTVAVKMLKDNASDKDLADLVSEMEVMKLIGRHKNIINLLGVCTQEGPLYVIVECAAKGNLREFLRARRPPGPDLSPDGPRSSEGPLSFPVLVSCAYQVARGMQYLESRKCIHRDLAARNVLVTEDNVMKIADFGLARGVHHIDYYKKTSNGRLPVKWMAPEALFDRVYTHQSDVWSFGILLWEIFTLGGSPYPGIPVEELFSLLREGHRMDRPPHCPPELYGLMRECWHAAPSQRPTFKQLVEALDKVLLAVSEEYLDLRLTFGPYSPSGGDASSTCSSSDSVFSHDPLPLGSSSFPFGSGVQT
Sequence of wild-type un-phosphorylated FGFR3 (P22607 23-806): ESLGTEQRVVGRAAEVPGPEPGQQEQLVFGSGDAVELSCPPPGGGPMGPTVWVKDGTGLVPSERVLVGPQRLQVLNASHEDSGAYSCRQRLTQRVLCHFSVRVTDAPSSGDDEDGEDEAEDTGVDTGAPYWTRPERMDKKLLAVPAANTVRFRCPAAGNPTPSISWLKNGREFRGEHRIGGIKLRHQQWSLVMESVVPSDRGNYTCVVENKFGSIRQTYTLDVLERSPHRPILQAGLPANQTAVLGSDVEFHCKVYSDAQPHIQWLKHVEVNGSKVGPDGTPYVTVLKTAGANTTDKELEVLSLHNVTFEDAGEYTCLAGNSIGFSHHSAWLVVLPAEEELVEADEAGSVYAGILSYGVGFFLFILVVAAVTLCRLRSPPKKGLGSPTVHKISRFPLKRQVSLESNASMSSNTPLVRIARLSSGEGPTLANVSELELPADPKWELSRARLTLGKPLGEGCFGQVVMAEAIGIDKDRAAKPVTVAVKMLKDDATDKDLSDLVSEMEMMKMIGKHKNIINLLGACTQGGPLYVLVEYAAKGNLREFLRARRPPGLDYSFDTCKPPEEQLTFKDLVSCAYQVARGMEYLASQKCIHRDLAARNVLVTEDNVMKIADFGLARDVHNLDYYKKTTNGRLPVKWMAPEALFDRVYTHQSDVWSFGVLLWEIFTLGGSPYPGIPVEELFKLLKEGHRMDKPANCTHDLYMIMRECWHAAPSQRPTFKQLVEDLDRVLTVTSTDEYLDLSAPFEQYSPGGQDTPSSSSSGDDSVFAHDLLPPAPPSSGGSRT
Sequence of wild-type un-phosphorylated FGFR1 (P11362 22-822): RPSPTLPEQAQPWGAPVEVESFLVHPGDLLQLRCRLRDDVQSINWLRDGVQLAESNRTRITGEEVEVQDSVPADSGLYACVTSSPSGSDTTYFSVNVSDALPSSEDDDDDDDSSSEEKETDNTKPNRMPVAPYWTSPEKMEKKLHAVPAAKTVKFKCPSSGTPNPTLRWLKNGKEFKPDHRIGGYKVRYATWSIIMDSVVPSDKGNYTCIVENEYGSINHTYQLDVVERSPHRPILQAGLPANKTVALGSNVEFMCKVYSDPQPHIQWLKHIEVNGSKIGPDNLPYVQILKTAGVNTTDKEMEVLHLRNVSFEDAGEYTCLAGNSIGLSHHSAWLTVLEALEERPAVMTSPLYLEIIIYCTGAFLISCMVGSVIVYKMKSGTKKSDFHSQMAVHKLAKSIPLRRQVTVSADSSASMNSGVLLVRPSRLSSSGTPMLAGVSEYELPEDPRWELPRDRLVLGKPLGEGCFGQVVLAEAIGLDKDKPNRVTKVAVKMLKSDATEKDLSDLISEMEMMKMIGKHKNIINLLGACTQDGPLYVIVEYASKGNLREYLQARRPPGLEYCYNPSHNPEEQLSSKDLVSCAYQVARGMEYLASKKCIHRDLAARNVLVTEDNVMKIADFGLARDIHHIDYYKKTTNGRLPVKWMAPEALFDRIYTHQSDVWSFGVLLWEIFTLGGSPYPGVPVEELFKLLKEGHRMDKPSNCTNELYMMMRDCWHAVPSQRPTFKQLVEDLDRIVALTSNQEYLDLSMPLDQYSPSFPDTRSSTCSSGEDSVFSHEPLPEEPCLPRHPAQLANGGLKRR

For the compound `COc1cc2[nH]nc(-c3cnn(C4CN(C)C4)c3)c2nc1-c1cccc2c1CCC2` [Example 17, 5-(2,3-Dihydro-1H-inden-4-yl)-6-methoxy-3-(1-(1-methylazetidin-3-yl)-1H-pyrazol-4-yl)-1H-pyrazolo[4,3-b]pyridine], the IC50 in experiment [1] (setting [5]) was 40 to 100 nM; in experiment [2], less than 6 nM; in experiment [3], less than 6 nM; in experiment [4], more than 100 nM.

Take `CCN1CC(n2cc(-c3n[nH]c4cc(OC)c(-c5cccc6c5CCC6)nc34)cn2)C1` [Example 18, 5-(2,3-Dihydro-1H-inden-4-yl)-3-(1-(1-ethylazetidin-3-yl)-1H-pyrazol-4-yl)-6-methoxy-1H-pyrazolo[4,3-b]pyridine]: the IC50 in experiment [1] (setting [5]) is 40 to 100 nM; in experiment [2], less than 6 nM; in experiment [3], less than 6 nM; in experiment [4] it was more than 100 nM.

As to `COc1cc2[nH]nc(-c3cnn(C4CCN(C(=O)N(C)C)CC4)c3)c2nc1-c1cccc2c1CCC2` [Example 19, 4-(4-(5-(2,3-Dihydro-1H-inden-4-yl)-6-methoxy-1H-pyrazolo[4,3-b]pyridin-3-yl)-1H-pyrazol-1-yl)-N,N-dimethylpiperidine-1-carboxamide], the IC50 is 40 to 100 nM in experiment [1] (setting [5]), less than 6 nM in experiment [2], less than 6 nM in experiment [3] and more than 100 nM in experiment [4].

Consider `COC(=O)N1CCC(n2cc(-c3n[nH]c4cc(OC)c(-c5cccc6c5CCC6)nc34)cn2)CC1` [Example 20, Methyl 4-(4-(5-(2,3-dihydro-1H-inden-4-yl)-6-methoxy-1H-pyrazolo[4,3-b]pyridin-3-yl)-1H-pyrazol-1-yl)piperidine-1-carboxylate], for which the IC50 in experiment [1] (setting [5]) is 40 to 100 nM; in experiment [2], less than 6 nM; in experiment [3], less than 6 nM; in experiment [4], more than 100 nM.

With `COC(=O)N1CC(n2cc(-c3n[nH]c4cc(OC)c(-c5cccc6c5CCC6)nc34)cn2)C1` [Example 21, Methyl 3-(4-(5-(2,3-dihydro-1H-inden-4-yl)-6-methoxy-1H-pyrazolo[4,3-b]pyridin-3-yl)-1H-pyrazol-1-yl)azetidine-1-carboxylate], the IC50 is 40 to 100 nM in experiment [1] (setting [5]), less than 6 nM in experiment [2], less than 6 nM in experiment [3] and 40 to 100 nM in experiment [4].

For the compound `COc1cc2[nH]nc(-c3cnn(C4CN(C(C)=O)C4)c3)c2nc1-c1cccc2c1CCC2` [Example 22, 1-(3-(4-(5-(2,3-Dihydro-1H-inden-4-yl)-6-methoxy-1H-pyrazolo[4,3-b]pyridin-3-yl)-1H-pyrazol-1-yl)azetidin-1-yl)ethan-1-one], the IC50 in experiment [1] (setting [5]) was 40 to 100 nM; in experiment [2], less than 6 nM; in experiment [3], less than 6 nM; in experiment [4], 40 to 100 nM.

Regarding `COc1cc2[nH]nc(-c3cnn(C4CN(S(C)(=O)=O)C4)c3)c2nc1-c1cccc2c1CCC2` [Example 23, 5-(2,3-Dihydro-1H-inden-4-yl)-6-methoxy-3-(1-(1-(methylsulfonyl)azetidin-3-yl)-1H-pyrazol-4-yl)-1H-pyrazolo[4,3-b]pyridine], the IC50 in experiment [1] (setting [5]) is more than 100 nM; in experiment [2], less than 6 nM; in experiment [3] it was less than 6 nM; in experiment [4], more than 100 nM.

Regarding `COc1cc2[nH]nc(-c3cnn(C4CN(C(=O)N(C)C)C4)c3)c2nc1-c1cccc2c1CCC2` [Example 24, 3-(4-(5-(2,3-Dihydro-1H-inden-4-yl)-6-methoxy-1H-pyrazolo[4,3-b]pyridin-3-yl)-1H-pyrazol-1-yl)-N,N-dimethylazetidine-1-carboxamide], the IC50 in experiment [1] (setting [6]) is 6 to 40 nM; in experiment [2], less than 6 nM; in experiment [3], less than 6 nM; in experiment [4] (read-out: FGFR4, wild-type un-phosphorylated FGFR4, pre-incubated for 4 hours), 6 to 40 nM.

As to `COc1cc2[nH]nc(-c3cnn(C4CN(C(=O)C5CC5)C4)c3)c2nc1-c1cccc2c1CCC2` [Example 25, Cyclopropyl(3-(4-(5-(2,3-dihydro-1H-inden-4-yl)-6-methoxy-1H-pyrazolo[4,3-b]pyridin-3-yl)-1H-pyrazol-1-yl)azetidin-1-yl)methanone], the IC50 in experiment [1] (setting [6]) was 6 to 40 nM; in experiment [2] it was less than 6 nM; in experiment [3] it was less than 6 nM; in experiment [4] it was 40 to 100 nM.

Turning to `COc1cc2[nH]nc(-c3cnn(CCN4CCOCC4)c3)c2nc1-c1cccc2c1CCC2` [Example 28, 4-(2-(4-(5-(2,3-Dihydro-1H-inden-4-yl)-6-methoxy-1H-pyrazolo[4,3-b]pyridin-3-yl)-1H-pyrazol-1-yl)ethyl)morpholine], the IC50 was 40 to 100 nM in experiment [1] (setting [5]), less than 6 nM in experiment [2], less than 6 nM in experiment [3] and more than 100 nM in experiment [4].

Take `COc1cc2[nH]nc(-c3cnn(C4CC4)c3)c2nc1-c1cccc2c1CCC2` [Example 29, 3-(1-Cyclopropyl-1H-pyrazol-4-yl)-5-(2,3-dihydro-1H-inden-4-yl)-6-methoxy-1H-pyrazolo[4,3-b]pyridine]: the IC50 was 40 to 100 nM in experiment [1] (setting [5]), less than 6 nM in experiment [2], less than 6 nM in experiment [3] and 40 to 100 nM in experiment [4].

With `COc1cc2[nH]nc(-c3cnn(CCC#N)c3)c2nc1-c1cccc2c1CCC2` [Example 30, 3-(4-(5-(2,3-Dihydro-1H-inden-4-yl)-6-methoxy-1H-pyrazolo[4,3-b]pyridin-3-yl)-1H-pyrazol-1-yl)propanenitrile], the IC50 in experiment [1] (setting [5]) is more than 100 nM; in experiment [2], less than 6 nM; in experiment [3] (setting [7]), 6 to 40 nM; in experiment [4] it was 40 to 100 nM.

In the case of `COc1cc2[nH]nc(-c3cnn(CCO)c3)c2nc1-c1cccc2c1CCC2` [Example 31, 2-(4-(5-(2,3-Dihydro-1H-inden-4-yl)-6-methoxy-1H-pyrazolo[4,3-b]pyridin-3-yl)-1H-pyrazol-1-yl)ethan-1-ol], the IC50 in experiment [1] (setting [5]) is 40 to 100 nM; in experiment [2] it was less than 6 nM; in experiment [3], less than 6 nM; in experiment [4], 40 to 100 nM.

For `COc1cc2[nH]nc(-c3cnn([C@H]4CC[C@H](O)CC4)c3)c2nc1-c1cccc2c1CCC2` [Example 33, (trans)-4-(4-(5-(2,3-Dihydro-1H-inden-4-yl)-6-methoxy-1H-pyrazolo[4,3-b]pyridin-3-yl)-1H-pyrazol-1-yl)cyclohexan-1-ol], the IC50 is 40 to 100 nM in experiment [1] (setting [5]), less than 6 nM in experiment [2], less than 6 nM in experiment [3] and more than 100 nM in experiment [4].

As to `CNc1cc2[nH]nc(-c3cnn(C)c3)c2nc1-c1cccc(C)c1C` [Example 34, 5-(2,3-Dimethylphenyl)-N-methyl-3-(1-methyl-1H-pyrazol-4-yl)-1H-pyrazolo[4,3-b]pyridin-6-amine], the IC50 in experiment [1] (setting [5]) was 40 to 100 nM; in experiment [2], less than 6 nM; in experiment [3] it was less than 6 nM; in experiment [4], more than 100 nM.

Take `Cn1cc(-c2n[nH]c3cc(CO)c(-c4cccc5c4CCC5)nc23)cn1` [Example 36, (5-(2,3-Dihydro-1H-inden-4-yl)-3-(1-methyl-1H-pyrazol-4-yl)-1H-pyrazolo[4,3-b]pyridin-6-yl)methanol]: the IC50 is 40 to 100 nM in experiment [1] (setting [5]), less than 6 nM in experiment [2], 6 to 40 nM in experiment [3] (setting [7]) and more than 100 nM in experiment [4].

`Cc1cccc(-c2nc3c(-c4cnn(C)c4)n[nH]c3cc2CO)c1C` [Example 38, (5-(2,3-Dimethylphenyl)-3-(1-methyl-1H-pyrazol-4-yl)-1H-pyrazolo[4,3-b]pyridin-6-yl)methanol]: the IC50 in experiment [1] (setting [5]) was more than 100 nM; in experiment [2] it was less than 6 nM; in experiment [3] (setting [7]) it was 6 to 40 nM; in experiment [4], more than 100 nM.

Regarding `Cc1cc2[nH]nc(-c3cnn(C)c3)c2nc1-c1cccc(C)c1C` [Example 40, 5-(2,3-Dimethylphenyl)-6-methyl-3-(1-methyl-1H-pyrazol-4-yl)-1H-pyrazolo[4,3-b]pyridine], the IC50 in experiment [1] (setting [5]) is more than 100 nM; in experiment [2], less than 6 nM; in experiment [3] (setting [7]), 6 to 40 nM; in experiment [4], more than 100 nM.

Consider `COc1cc2[nH]nc(-c3ccc(N4CCN(C)CC4)nc3)c2nc1-c1cccc(C)c1C` [Example 41, 5-(2,3-Dimethylphenyl)-6-methoxy-3-(6-(4-methylpiperazin-1-yl)pyridin-3-yl)-1H-pyrazolo[4,3-b]pyridine], for which the IC50 in experiment [1] (setting [5]) is 40 to 100 nM; in experiment [2] it was less than 6 nM; in experiment [3], less than 6 nM; in experiment [4], 40 to 100 nM.

As to `CCN1CCN(c2ccc(-c3n[nH]c4cc(OC)c(-c5cccc(C)c5C)nc34)cn2)CC1` [Example 42, 5-(2,3-Dimethylphenyl)-3-(6-(4-ethylpiperazin-1-yl)pyridin-3-yl)-6-methoxy-1H-pyrazolo[4,3-b]pyridine], the IC50 was 40 to 100 nM in experiment [1] (setting [5]), less than 6 nM in experiment [2], less than 6 nM in experiment [3] and more than 100 nM in experiment [4].

As for `COc1cc2[nH]nc(-c3ccc(N4CCOCC4)nc3)c2nc1-c1cccc(C)c1C` [Example 44, 4-(5-(5-(2,3-Dimethylphenyl)-6-methoxy-1H-pyrazolo[4,3-b]pyridin-3-yl)pyridin-2-yl)morpholine], the IC50 in experiment [1] (setting [5]) is more than 100 nM; in experiment [2], less than 6 nM; in experiment [3] (setting [7]), 6 to 40 nM; in experiment [4] it was more than 100 nM.

Consider `COc1cc2[nH]nc(-c3cnn(C4CN(C(=O)N(C)C)C4)c3)c2nc1-c1cccc(C)c1F` [Example 52, 3-(4-(5-(2-Fluoro-3-methylphenyl)-6-methoxy-1H-pyrazolo[4,3-b]pyridin-3-yl)-1H-pyrazol-1-yl)-N,N-dimethylazetidine-1-carboxamide], for which the IC50 in experiment [1] (setting [5]) is more than 100 nM; in experiment [2] it was less than 6 nM; in experiment [3] (setting [7]), 6 to 40 nM; in experiment [4] it was more than 100 nM.
